Tested on: Plasmodium berghei
Test: Luciferase/luciferin-expressing antifolate-resistant parasites were used to infect a culture of HepG2 cells that were pre-incubated with compounds. Infected hepatocytes emit light due to the luciferase reaction. Assay results are presented as the percent inhibition of light emission compared to control. […]
Assay type: functional
Settings: sporozoite; for IC90: read-out: LUCIFERASE INFECTION ASSAY - IC90

Row | Structure (SMILES) | IC90 | other results
1 | COc1ccccc1C(CNC(=O)c1ccc(-c2ccccc2Cl)o1)N1CCCC1 (stereo not given) | 9.73 µM | IC50 (PBLUC_HILL_SLOPE 3.28, PBLUC_R_SQUARED 0.202, read-out: LUCIFERASE INFECTION ASSAY - IC50): 4.98 µM
2 | NC(Cc1ccc(C(F)(F)F)cc1)c1csc(Nc2cc(Oc3ccccc3)ncn2)n1 (stereo not given) | > 7.21 µM | IC50 (PBLUC_HILL_SLOPE 3.27, PBLUC_R_SQUARED 0.275, read-out: LUCIFERASE INFECTION ASSAY - IC50): 4.26 µM
3 | CNC(=S)Nc1cc(C(F)(F)F)cc(C(F)(F)F)c1 | 8.33 µM | IC50 (PBLUC_HILL_SLOPE 3.27, PBLUC_R_SQUARED 0.572, read-out: LUCIFERASE INFECTION ASSAY - IC50): 4.26 µM
4 | CCN(CC)S(=O)(=O)c1ccc(C(C)NC(=O)c2nn(CC)c(=O)c3ccccc23)cc1 (stereo not given) | 4.01 µM | IC50 (PBLUC_HILL_SLOPE 3.22, PBLUC_R_SQUARED 0.606, read-out: LUCIFERASE INFECTION ASSAY - IC50): 2.02 µM
5 | CSc1[nH]c(=O)c(C(=O)NCCc2c(C)cc(C(C)(C)C)cc2C)cc1C#N | 7.29 µM | IC50 (PBLUC_HILL_SLOPE 3.23, PBLUC_R_SQUARED 0.351, read-out: LUCIFERASE INFECTION ASSAY - IC50): 3.69 µM
6 | COCCCN1C(=O)N(Cc2ccccc2)C(=O)C12CCN(Cc1cccc(-c3ccco3)c1)CC2 | > 6.77 µM | IC50 (PBLUC_HILL_SLOPE 3.26, PBLUC_R_SQUARED 0.648, read-out: LUCIFERASE INFECTION ASSAY - IC50): 4.58 µM
7 | Cc1cc(OCCCC(=O)NC2CCN(Cc3ccccc3)CC2)ccc1Cl | > 10 µM | IC50 (PBLUC_HILL_SLOPE 3.22, PBLUC_R_SQUARED 0.455, read-out: LUCIFERASE INFECTION ASSAY - IC50): 5.35 µM
8 | Cc1ccc(S(=O)(=O)Nc2ccc(Nc3nccn4c(-c5ccccc5N(C)C)cnc34)cc2)cc1 | > 6.62 µM | IC50 (PBLUC_HILL_SLOPE 3.26, PBLUC_R_SQUARED 0.262, read-out: LUCIFERASE INFECTION ASSAY - IC50): 3.47 µM
9 | Cc1cc2oc(=O)cc(CN(Cc3ccc(C(=O)NC4CC4)cc3)Cc3ccco3)c2cc1C | 1.83 µM | IC50 (PBLUC_HILL_SLOPE 3.23, PBLUC_R_SQUARED 0.675, read-out: LUCIFERASE INFECTION ASSAY - IC50): 0.928 µM
10 | Cc1onc(-c2ccccc2Cl)c1NC(=O)Nc1cc(C(F)(F)F)cc(C(F)(F)F)c1 | 6.51 µM | IC50 (PBLUC_HILL_SLOPE 3.23, PBLUC_R_SQUARED 0.494, read-out: LUCIFERASE INFECTION ASSAY - IC50): 3.3 µM
11 | Cc1nn(-c2ccccc2Cl)c(Cl)c1/C=N/Nc1ccccc1Cl | 7.32 µM | IC50 (PBLUC_HILL_SLOPE 3.24, PBLUC_R_SQUARED 0.794, read-out: LUCIFERASE INFECTION ASSAY - IC50): 3.72 µM
12 | C=c1onc(-c2c(F)cccc2Cl)c1=C1NC(c2ccccn2)=NO1 | > 9.25 µM | IC50 (PBLUC_HILL_SLOPE 3.2, PBLUC_R_SQUARED 0.36, read-out: LUCIFERASE INFECTION ASSAY - IC50): 6.04 µM
13 | O=C(/C=C/c1cccs1)N1CCN(S(=O)(=O)c2c(Cl)cc(Br)cc2Cl)CC1 | > 10 µM | IC50 (PBLUC_HILL_SLOPE 3.28, PBLUC_R_SQUARED 0.115, read-out: LUCIFERASE INFECTION ASSAY - IC50): 5.38 µM
14 | Cn1c(-c2c(-c3ccccc3)n[nH]c2-c2ccc([N+](=O)[O-])cc2)nc2ccccc21 | 9.52 µM | IC50 (PBLUC_HILL_SLOPE 3.22, PBLUC_R_SQUARED 0.201, read-out: LUCIFERASE INFECTION ASSAY - IC50): 4.81 µM
15 | COc1cc(-c2cnc3cnc(-c4ccc(CNc5ccccc5)cc4)cn23)cc(OC)c1OC | 5.78 µM | IC50 (PBLUC_HILL_SLOPE 3.28, PBLUC_R_SQUARED 0.672, read-out: LUCIFERASE INFECTION ASSAY - IC50): 2.96 µM
16 | Fc1ccc(COc2ccc(Cl)cc2CNCc2ccccn2)cc1 | > 9.25 µM | IC50 (PBLUC_HILL_SLOPE 3.23, PBLUC_R_SQUARED 0.405, read-out: LUCIFERASE INFECTION ASSAY - IC50): 6.55 µM
17 | Oc1c(C(c2ccc(F)cc2)N2CCCCC2)cc(Cl)c2cccnc12 (stereo not given) | > 10 µM | IC50 (PBLUC_HILL_SLOPE 3.21, PBLUC_R_SQUARED 0.483, read-out: LUCIFERASE INFECTION ASSAY - IC50): 6.21 µM
18 | C=CCn1c(C)cc(C(=O)CSc2nc3ccccc3s2)c1C | 0.221 µM | IC50 (PBLUC_HILL_SLOPE 3.3, PBLUC_R_SQUARED 0.342, read-out: LUCIFERASE INFECTION ASSAY - IC50): 0.113 µM
19 | O=C(NCCO)c1cccc(-c2ccc3ncc(-c4cccc(OC(F)(F)F)c4)n3n2)c1 | 9.96 µM | IC50 (PBLUC_HILL_SLOPE 3.2, PBLUC_R_SQUARED 0.416, read-out: LUCIFERASE INFECTION ASSAY - IC50): 5.01 µM
20 | O=C(Nc1ccccc1)c1ccc(C2(CNCc3cccnc3)CC2)cc1 | 0.637 µM | IC50 (PBLUC_HILL_SLOPE 3.24, PBLUC_R_SQUARED 0.623, read-out: LUCIFERASE INFECTION ASSAY - IC50): 0.323 µM

Row | Structure (SMILES) | IC90 | other results
21 | CNc1ncnc(NNC(=O)Nc2ccc(Cl)cc2)c1[N+](=O)[O-] | > 9.77 µM | IC50 (PBLUC_HILL_SLOPE 3.27, PBLUC_R_SQUARED 0.316, read-out: LUCIFERASE INFECTION ASSAY - IC50): 5.92 µM
22 | CCCCCCCCc1nnc(NC(=O)c2cnc(C)cn2)s1 | 9.2 µM | IC50 (PBLUC_HILL_SLOPE 3.30, 10.9, PBLUC_R_SQUARED 0.837, 0.639, read-out: LUCIFERASE INFECTION ASSAY - IC50): 6.57 µM
23 | COC(=O)c1c(NC(=O)C2CCOC2)c2cc(NCC(C)(C)C)cnc2n1CCc1c[nH]c2ccccc12 (stereo not given) | > 6.38 µM | IC50 (PBLUC_HILL_SLOPE 3.23, PBLUC_R_SQUARED 0.492, read-out: LUCIFERASE INFECTION ASSAY - IC50): 4.09 µM
24 | CCOC(=O)c1cc(-c2ccccc2)sc1NC(=O)CSc1nnc(-c2cccnc2)n1-c1ccccc1C | > 10 µM | IC50 (PBLUC_HILL_SLOPE 3.21, PBLUC_R_SQUARED 0.715, read-out: LUCIFERASE INFECTION ASSAY - IC50): 6.74 µM
25 | CC(C)(C)c1cc2nc(C(F)(F)F)cc(NNC(=O)Nc3ccccc3)n2n1 | > 8.41 µM | IC50 (PBLUC_HILL_SLOPE 3.27, PBLUC_R_SQUARED 0.167, read-out: LUCIFERASE INFECTION ASSAY - IC50): 5.36 µM
26 | COc1ccc(Cn2nc(C(=O)NC3CCCC3)c3c2CCN(Cc2ccc4c(c2)CCO4)C3)cc1 | > 6.78 µM | IC50 (PBLUC_HILL_SLOPE 3.3, PBLUC_R_SQUARED 0.745, read-out: LUCIFERASE INFECTION ASSAY - IC50): 3.79 µM
27 | COC(=O)c1c(C)[nH]c(-c2nc(Nc3cccc(OC)c3)sc2C)c1C | > 10 µM | IC50 (PBLUC_HILL_SLOPE 3.29, PBLUC_R_SQUARED 0.0567, read-out: LUCIFERASE INFECTION ASSAY - IC50): 7.6 µM
28 | CC(C)(C)c1ccc(C(=O)NC(=S)NNC(=O)c2cccc([N+](=O)[O-])c2)cc1 | 3.57 µM | IC50 (PBLUC_HILL_SLOPE 3.29, PBLUC_R_SQUARED 0.591, read-out: LUCIFERASE INFECTION ASSAY - IC50): 1.83 µM
29 | COc1ccc(-c2cnc3sc(NCCCO)nn23)cc1OC | 7.9 µM | IC50 (PBLUC_HILL_SLOPE 3.23, PBLUC_R_SQUARED 0.708, read-out: LUCIFERASE INFECTION ASSAY - IC50): 4 µM
30 | CN1/C(=C\C=N\NC(=O)c2cccs2)C(C)(C)c2ccccc21 | 8.4 µM | IC50 (PBLUC_HILL_SLOPE 3.23, PBLUC_R_SQUARED 0.426, read-out: LUCIFERASE INFECTION ASSAY - IC50): 4.25 µM
31 | Fc1ccc(NC(=S)NC2CC3CC2C2C=CCC32)cc1 (stereo not given) | 8.13 µM | IC50 (PBLUC_HILL_SLOPE 3.22, PBLUC_R_SQUARED 0.522, read-out: LUCIFERASE INFECTION ASSAY - IC50): 4.11 µM
32 | O=C(/C=C/c1ccc(Cl)c(Cl)c1)NNC(=O)C1COc2ccccc2O1 (stereo not given) | 9.08 µM | IC50 (PBLUC_HILL_SLOPE 3.24, PBLUC_R_SQUARED 0.588, read-out: LUCIFERASE INFECTION ASSAY - IC50): 4.61 µM
33 | Cc1nn(Cc2ccccc2)c(C)c1C(=O)N1CCN(CCOc2ccc(Cl)cc2)CC1 | > 10 µM | IC50 (PBLUC_HILL_SLOPE 3.21, PBLUC_R_SQUARED 0.27, read-out: LUCIFERASE INFECTION ASSAY - IC50): 9.94 µM
34 | CCCCN=C1NN=C(C23CC4CC(CC(C4)C2)C3)C(C)S1 (stereo not given) | 8.93 µM | IC50 (PBLUC_HILL_SLOPE 3.27, PBLUC_R_SQUARED 0.411, read-out: LUCIFERASE INFECTION ASSAY - IC50): 4.56 µM
35 | CC1(C)C2CC=C(/C=N/NC(=O)Cn3c(C(F)(F)F)nc4ccccc43)C1C2 (stereo not given) | > 10 µM | IC50 (PBLUC_HILL_SLOPE 3.28, PBLUC_R_SQUARED 0.493, read-out: LUCIFERASE INFECTION ASSAY - IC50): 6.15 µM
36 | Cc1ccccc1/N=c1\scc(-c2ccc(Cl)cc2Cl)n1C(C)CCC(C)C (stereo not given) | 9.57 µM | IC50 (PBLUC_HILL_SLOPE 3.23, PBLUC_R_SQUARED 0.321, read-out: LUCIFERASE INFECTION ASSAY - IC50): 4.85 µM
37 | CNc1nc(-c2cccnc2)nc2sc(-c3ccccc3)cc12 | > 10 µM | IC50 (PBLUC_HILL_SLOPE 3.26, PBLUC_R_SQUARED 0.654, read-out: LUCIFERASE INFECTION ASSAY - IC50): 6.22 µM
38 | N#Cc1ccccc1COc1ccccc1-c1ccccc1 | > 10 µM | IC50 (PBLUC_HILL_SLOPE 3.31, PBLUC_R_SQUARED 0.0977, read-out: LUCIFERASE INFECTION ASSAY - IC50): 7.89 µM
39 | CN(C)CCNC(=O)c1ccc(-c2cn3c(-c4ccc5c(ccn5C)c4)cnc3cn2)cc1 | > 7.53 µM | IC50 (PBLUC_HILL_SLOPE 3.24, PBLUC_R_SQUARED 0.242, read-out: LUCIFERASE INFECTION ASSAY - IC50): > 7.53 µM
40 | C=CCN(C(=O)c1cccc(C)c1[N+](=O)[O-])c1nc2c(s1)CCCC2 | > 10 µM | IC50 (PBLUC_HILL_SLOPE 3.27, PBLUC_R_SQUARED 0.266, read-out: LUCIFERASE INFECTION ASSAY - IC50): 9.32 µM

— ChEMBL document CHEMBL4483862, “Open-source discovery of chemical leads for next-generation chemoprotective antimalarials” (2018)
